According to patent US10828368B2, “Therapeutic treatments using centhaquin” (MIDWESTERN UNIVERSITY, priority 2009, dated 2020):
Entries after “also recorded” stand apart in the source; their conditions may differ. Counter-ions that a name gives are not always drawn. Like-named read-outs stand apart in the source and are kept apart here. Ends that are not written are not given here.

Columns and labels:
[1] = system: urethane anaesthetized rats; experiment: Cardiovascular response (MAP, PP, HR) of drugs in urethane anaesthetized rats; format: in vivo, rat; settings: for decrease in HR after centhaquin in antagonist treated rats, compared to baseline / decrease in MAP after centhaquin in antagonist treated rats, compared to baseline / decrease in PP after centhaquin in antagonist treated rats, compared to baseline / potentiation of centhaquin hypotensive effect compared to vehicle treated rats / potentiation of centhaquin-induced decrease in HR (bradycardia) compared to vehicle treated rats: TAK-044 1 mg/kg or BMS-182874 9 mg/kg + centhaquin 0.15 mg/kg; for maximum decrease in PP after clonidine in antagonist treated rats, compared to baseline / reduction in MAP after clonidine in antagonist treated rats, compared with the baseline: TAK-044 1 mg/kg or BMS-182874 9 mg/kg + clonidine 10 μg/kg; for change in MAP, PP and HR, antagonist alone: TAK-044 1 mg/kg or BMS-182874 9 mg/kg alone; for Bradycardia, Centhaquin, percent change / Decrease in pulse pressure, Centhaquin, percent change / Hypotension, Centhaquin, percent change: centhaquin 0.33 mg/kg [sic], compared to centhaquin response in control rats; for fall in MAP / decrease in PP: compared to baseline
From the text: Rats were anaesthetized with urethane (1.5 g/kg i.p.) and prepared for the determination of hemodynamic parameters (Gulati and Srimal, 1993; Gulati et al., 1997b). The anesthetized rats were shaved and immobilized to prepare for cannulation. A 2-3 cm incision was made above the femoral vein and artery, and the vessels were dissected and cleaned. The left femoral vein was cannulated (PE-50 tubing, Clay Adams, Parsipanny, N.J.) and secured for drug administration. An ultra-miniature Pressure transducer SPR-320 (2F Polyurethane), with a single pressure sensor side mounted at the tip (Millar Instruments, Houston, Tex.), was inserted in the left femoral artery to acquire the hemodynamic signals. Pressure transducer was connected to bridge amplifier (ML221 Bridge Amp; AD Instruments, Mountain View, Calif., USA) with Viking connector (AEC-10C) and the signals were continuously acquired at a sampling rate of 1000 S^−1 using Millar PowerLab 16/30 data acquisition system (AD Instruments, Mountain View, Calif., USA). MAP, HR, and PP were determined and analyzed with LabChart-5.00 software program (Millar Instruments). After the experiment was completed, the animals were euthanized with higher dose of urethane (3 gm/kg).
The animals were allowed to stabilize for at least 20 min following surgical procedures.
In the above studies, all drugs were injected through the left femoral vein and changes in MAP, HR, and PP after clonidine and centhaquin injection were recorded for 1 hour using Millar PowerLab 16/30 data acquisition system.

[2] = Arterial blood gas analysis before and one hour after drug; format: in vivo, rat
From the text: Arterial blood pH, pO2, pCO2, Na^+, K^+, and lactate were monitored prior to and after drug administration. Blood samples were drawn from the arterial cannula using blood gas sampling syringes (Innovative Medical Technologies, Inc. Leawood, Kans.) and analyzed using a GEM Premier 3000 unit (Instrument Laboratory, Lexington, Mass.).
Blood samples were drawn from the arterial cannula using blood gas sampling syringes (Innovative Medical Technologies, Inc. Leawood, Kans.) and analyzed using a GEM Premier 3000 unit (Instrument Laboratory, Lexington, Mass.).

[3] = system: 5-HT1 receptors in the medulla; settings: cited from earlier work
[4] = system: rat abdominal aortic ring; experiment: Clonidine response on the abdominal aortic ring; settings: for EC50: Rattus norvegicus, read-out: ED50 value, aortic ring contraction
Description: The abdominal aorta was isolated and dissected out from urethane (1.5 g·kg^−1 i.p.) anesthetized rats and was transferred to Krebs bicarbonate buffer pH 7.4 (composition in mM, NaCl, 112.0; KCl, 4.7; KH2PO4, 1.2; MgSO4, 1.2; CaCl2, 2.5; NaHCO3, 25.0; glucose, 11.0) with continuous supply of 95% O2 and 5% CO2 at 37±1° C. The tissue was cut into ring segments (3 mm in length) and mounted in organ baths using 10 mm Radnoti glass ring supports. Extra care was taken while cutting and mounting the ring segment to prevent loss of endothelial layer. Tissue was equilibrated for 45 min by applying 2 g of tension with regular buffer change after every 15 min. Vessels were pre-contracted with 100 mM KCl to determine the viability. Clonidine-induced contractions of aortic ring were measured using Radnoti 8 unit tissue bath (Radnoti Glass Technology, Monrovia, Calif.) and the force transducer coupled with a Grass P7D polygraph. The dose response was recorded for 0.25, 0.5, 1, 2, 4, 6, 8, and 10 μM of clonidine with or without ET-1 (4 nM) treatment and ED50 value was calculated. Experiments were performed in Group 1: Vehicle+Clonidine (0.25 to 10 μM); and Group 2: ET-1 (4 nM)+Clonidine (0.25 to 10 μM) using (n=6) rats in each group.

[5] = system: α-adrenergic receptors in the hypothalamus and medulla; settings: chronic administration in rats; with hypotension and bradycardia; cited from earlier work
α2-adrenergic receptors = settings: higher for α2; cited from earlier work
rats = settings: clonidine given intravenously in cervical sectioned rats; cited from earlier work
[6] = one hour after clonidine 90 μg/kg or centhaquin 0.45 mg/kg
[7] = ET-1 300 ng/kg + prazosin 0.1 mg/kg + centhaquin 0.15 mg/kg
[8] = ET-1 100 ng/kg + clonidine 10 μg/kg, compared to vehicle treated rats receiving clonidine
[9] = ET-1 300 ng/kg + clonidine 10 μg/kg, compared to vehicle treated rats receiving clonidine
[10] = ET-1 900 ng/kg + centhaquin 0.15 mg/kg, compared to vehicle treated rats receiving centhaquin
[11] = ET-1 900 ng/kg + clonidine 10 μg/kg, compared to vehicle treated rats receiving clonidine

With Cc1noc(NS(=O)(=O)c2cccc3c(N(C)C)cccc23)c1C [BMS-182874, (5-Dimethylamino)-N-(3,4-dimethyl-5-isoxazolyl)-1-naphthalene sulfonamide hydrochloride] the “potentiation of centhaquin induced decrease in HR, more than that produced by TAK-044 treatment” value ([1]; BMS-182874 9 mg/kg versus TAK-044 1 mg/kg, centhaquin 0.15 mg/kg) was 18.63%, the “decrease in HR after centhaquin in antagonist treated rats, compared to baseline” value [1] was 35.72% and the “decrease in MAP after centhaquin in antagonist treated rats, compared to baseline” value [1] was 43.46%. The “decrease in PP after centhaquin in antagonist treated rats, compared to baseline” value [1] was 49.68%, the “potentiation of centhaquin hypotensive effect compared to vehicle treated rats” value [1] was 30.67% and the “potentiation of centhaquin-induced decrease in HR (bradycardia) compared to vehicle treated rats” value [1] was 29.00%. The “maximum decrease in PP after clonidine in antagonist treated rats, compared to baseline” value [1] was 44.97%, the “reduction in MAP after clonidine in antagonist treated rats, compared with the baseline” value [1] was 29.44% and the “change in MAP, PP and HR, antagonist alone” value [1] was “no significant change”. For the same compound, the “Bradycardia, Centhaquin, percent change” value [1] was “(29.00%)”, the “Decrease in pulse pressure, Centhaquin, percent change” value [1] was “(28.72%)” and the “Hypotension, Centhaquin, percent change” value [1] was “(30.67%)”.
In the case of Clc1cccc(Cl)c1NC1=NCCN1 [Clonidine, N-(2,6-dichlorophenyl)-4,5-dihydro-1H-imidazol-2-amine], the “changes in arterial blood pH, pO2, pCO2, Na^+, K^+, lactate and hematocrit” value ([2]; before versus one hour after clonidine 90 μg/kg or centhaquin 0.45 mg/kg) is reported as “no significant changes”, the Hct [2, 6] is reported as 50 ± 4% and the “K^+” value [2, 6] is reported as 4.3 ± 0.6 mmol/L. For the same compound, the “Na^+” value [2, 6] was 139 ± 2 mmol/L, the “arterial blood pH” value [2, 6] was 7.28 ± 0.03 and the pCO2 [2, 6] was 46 ± 4 mmHg. The pO2 [2, 6] was 100 ± 14 mmHg, the “effect of repeated administration on 5-HT1 receptors in the medulla” value [3] was “up-regulation” and the EC50 ([4]; ET-1 (4 nM) treated aorta) was 1810 ± 40 nM. For the same compound, the EC50 ([4]; vehicle treated aorta) was 2640 ± 20 nM, the “percent contraction of aorta” value ([4]; clonidine 2 μM, ET-1 (4 nM) treated aorta) was 75.95±1.36% and the “percent contraction of aorta” value ([4]; clonidine 2 μM, vehicle treated aorta) was 51.017±1.70%. For the same compound, the “percent contraction of aorta” value ([4]; clonidine 4 μM, ET-1 treated aorta) was 96.83±0.54%, the “percent contraction of aorta” value ([4]; clonidine 4 μM, vehicle treated aorta) was 80.27±2.48% and the “contraction in rat abdominal aortic ring” value ([4]; clonidine 0.25-10 μM) was “dose-dependent (0.25-10 μM) contraction”. The “effect of chronic administration on α-adrenergic receptors in the hypothalamus and medulla” value [5] was “up-regulation”, the “decrease in HR” value ([1]; clonidine 10 μg/kg) was 20.84% and the “fall in MAP” value ([1]; clonidine 10 μg/kg i.v.) was 24.02%. For the same compound, the “decrease in PP” value ([1]; clonidine 10 μg/kg) was 33.81%, the “decrease in HR” value ([1]; clonidine 30 μg/kg) was 23.18% and the “fall in MAP” value ([1]; clonidine 30 μg/kg i.v.) was 26.15%. The “decrease in PP” value ([1]; clonidine 30 μg/kg) was 36.39%, the “decrease in HR” value ([1]; clonidine 90 μg/kg) was 23.19% and the “fall in MAP” value ([1]; clonidine 90 μg/kg i.v.) was 19.48%. For the same compound, the “decrease in PP” value ([1]; clonidine 90 μg/kg) was 34.27%, the “dose-response effect on MAP, PP and HR” value ([1]; clonidine 10, 30, 90 μg/kg i.v., centhaquin 0.05, 0.15, 0.45 mg/kg i.v.) was “dose-dependent hypotension and bradycardia; also recorded: dose-dependent fall in mean arterial pressure (MAP), pulse pressure (PP), and a decrease in heart rate (HR)” and the “binding affinity for α2-adrenergic receptors relative to α1-adrenoreceptors” value (α2-adrenergic receptors) was “approximately 10 fold”. The “effect on blood pressure and heart rate” value (rats) was “did not produce any effect”.
With COc1cc2nc(N3CCN(C(=O)c4ccco4)CC3)nc(N)c2cc1OC [Prazosin] the “effect of prazosin on changes produced in MAP by centhaquin in ET-1 treated rats” value [1, 7] was “completely (p<0.01) blocked”, the “effect of prazosin on decrease in HR induced by centhaquin in ET-1 treated rats” value [1, 7] was “significantly (p<0.05) attenuated” and the “effect of prazosin on decrease in PP induced by centhaquin in ET-1 treated rats” value [1, 7] was “significantly (p<0.001) attenuated”. For the same compound, the “effect of prazosin on changes in MAP and HR by centhaquin in vehicle treated rats” value ([1]; prazosin 0.1 mg/kg + centhaquin 0.15 mg/kg) was “blocked”.
With “ET-1: endogenous 21-residue peptide endothelin isopeptide, used as ET agonist (CSCSSLMDKECVYFCHLDIIW; not fully specified; ends and bridges not checked; UniProt P05305 53-73, looked up)” the “effect of ET-1 pretreatment on contractile response of clonidine” value ([4]; ET-1 4 nM pretreated aorta) was “significantly potentiated”, the “decrease in HR produced by centhaquin, ET-1 versus vehicle treated rats” value ([1]; ET-1 100 ng/kg + centhaquin 0.15 mg/kg) was “similar” and the “attenuation of clonidine induced fall in PP” value ([1]; ET-1 100 ng/kg + clonidine 10 μg/kg) was 33.66%. For the same compound, the “attenuation of clonidine-induced decrease in HR” value [1, 8] was 18.01%, the “attenuation of clonidine-induced fall in MAP” value [1, 8] was 27.63% and the “effect on centhaquin-induced decrease in HR” value ([1]; ET-1 300 ng/kg + centhaquin 0.15 mg/kg) was “significantly attenuated”. The “attenuation of clonidine-induced decrease in HR” value [1, 9] was 21.00%, the “attenuation of clonidine-induced decrease in MAP” value [1, 9] was 27.41% and the “attenuation of centhaquin-induced decrease in HR (increase in HR compared to untreated rats)” value [1, 10] was 21.44%. For the same compound, the “attenuation of centhaquin-induced decrease in MAP (increase in MAP compared to untreated rats)” value [1, 10] was 33.48%, the “attenuation of clonidine-induced decrease in HR (increase in HR compared to untreated rats)” value [1, 11] was 37.42% and the “attenuation of clonidine-induced decrease in MAP (increase in MAP compared to untreated rats)” value [1, 11] was 42.58%. The “change in HR compared to baseline, ET-1 alone” value ([1]; ET-1 100, 300 and 900 ng/kg) was “no change”, the “change in MAP compared to baseline, ET-1 alone” value ([1]; ET-1 100, 300 and 900 ng/kg) was “fall (p<0.001) followed by significant rise” and the “effect of ET-1 treatment on clonidine-induced fall in MAP” value ([1]; ET-1 100, 300 and 900 ng/kg i.v., clonidine 10 μg/kg i.v., dose-dependent manner) was “significantly attenuated”. For the same compound, the “effect of ET-1 treatment on centhaquin-induced fall in MAP” value ([1]; ET-1 100, 300 and 900 ng/kg, centhaquin 0.15 mg/kg i.v., dose-dependent manner) was “significantly attenuated”, the “attenuation of centhaquin-induced decrease in MAP” value ([1]; ET-1 100 and 300 ng/kg + centhaquin 0.15 mg/kg) was “small statistically insignificant attenuation” and the “attenuation of clonidine induced fall in PP” value ([1]; ET-1 300 and 900 ng/kg + clonidine 10 μg/kg) was “showed attenuation, but did not reach the level of statistical significance”.
With “cyclo [D-α-aspartyl-3-[(4-phenylpiperazin-1-yl) carbonyl]-L-alanyl-L-α-aspartyl-D-2-(2-thienyl)glycyl-L-leu-Cyl-D-tryptOphyljdisodium salt [TAK-044]” the “decrease in HR after centhaquin in antagonist treated rats, compared to baseline” value [1] was 21.94%, the “decrease in MAP after centhaquin in antagonist treated rats, compared to baseline” value [1] was 32.31% and the “decrease in PP after centhaquin in antagonist treated rats, compared to baseline” value [1] was 46.49%. For the same compound, the “potentiation of centhaquin hypotensive effect compared to vehicle treated rats” value [1] was 16.48%, the “potentiation of centhaquin-induced decrease in HR (bradycardia) compared to vehicle treated rats” value [1] was 12.74% and the “maximum decrease in PP after clonidine in antagonist treated rats, compared to baseline” value [1] was 52.72%. The “reduction in MAP after clonidine in antagonist treated rats, compared with the baseline” value [1] was 36.59%, the “change in MAP, PP and HR, antagonist alone” value [1] was “no significant change” and the “Bradycardia, Centhaquin, percent change” value [1] was “(12.74%)”. For the same compound, the “Decrease in pulse pressure, Centhaquin, percent change” value [1] was “(23.83%)” and the “Hypotension, Centhaquin, percent change” value [1] was “(16.48%)”.
